Test results: US20260250318A1, “COMPOSITIONS AND METHODS FOR CROSSING THE BLOOD BRAIN BARRIER” (VOYAGER THERAPEUTICS, INC., priority 2022, published 2026)

Tests used:
Settings in all cases: synthetic library passage 3, intravenous, relative to wild-type AAV9
[1] = system: brain, spinal cord, and DRG of the NHPs; test: NGS fold enrichment of synthetic library (passage 3) in NHPs, first cross-species screen; assay type: in vivo, cynomolgus macaques (Macaca fascicularis)
Outline: (§1)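 Synthetic capsid library (passage 3) was given intravenously […] to NHPs aged 2-4 years and to BALB/c and C57Bl/6 mice (n=3 each, 6-8 weeks). After about 28 days in vivo, tissue RNA was RT-PCR amplified and NGS-sequenced; values are fold enrichment per variant relative to wild-type AAV9.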

brain [2] = test: NGS fold enrichment of synthetic library (passage 3) in BALB/c mice, first cross-species screen; assay type: in vivo
Outline: as §1

brain [3] = test: NGS fold enrichment of synthetic library (passage 3) in C57Bl/6 mice, first cross-species screen; assay type: in vivo
Outline: as §1

[4] = RNA from spinal cord of NHPs, NGS
[5] = RNA from brain of BALB/c mice, NGS
[6] = RNA from brain of C57Bl/6 mice, NGS

Sequence | Fold enrichment over AAV9 in the brain of NHPs ([1]; RNA NGS, brain of NHPs) | Fold enrichment over AAV9 in the spinal cord of NHPs ([1]; RNA NGS, spinal cord of NHPs) | Fold enrichment over AAV9 in the brain of Mice (BALB/c) (brain [2]; RNA NGS, brain of BALB/c mice) | Fold enrichment over AAV9 in the brain of Mice (C57Bl/6) (brain [3]; RNA NGS, brain of C57Bl/6 mice) | Fold enrichment over AAV9 in the brain of NHPs ([1]; RNA from brain of NHPs, NGS) | Fold enrichment over AAV9 in the spinal cord of NHPs [1, 4] | Fold enrichment over AAV9 in the brain of Mice (BALB/c) (brain [2]; [5]) | Fold enrichment over AAV9 in the brain of Mice (C57Bl/6) (brain [3]; [6])
GSGMRQAGVQNQQT | 1.032 fold | 0.811 fold | 0.775 fold | 0.736 fold |  |  |  | 
GSGMSPSTLQNQQT | 2.216 fold | 3.053 fold | 0.153 fold | 0.318 fold |  |  |  | 
GSGNMHASRQNQQT |  |  |  |  | 1.238 fold | 3.878 fold | 0.687 fold | 0.782 fold
GSGNPHVRNQNQQT | 1.112 fold | 0.873 fold | 0.755 fold | 0.732 fold |  |  |  | 
GSGNPVSHLQNQQT | 1.121 fold | 1.037 fold | 0.310 fold | 0.583 fold |  |  |  | 
GSGNYRDHEQNQQT |  |  |  |  | 1.193 fold | 7.389 fold | 0.222 fold | 0.287 fold
GSGPILGQLQNQQT | 2.097 fold | 2.058 fold | 0.123 fold | 0.470 fold |  |  |  | 
GSGPQSHTGQNQQT | 1.757 fold | 9.490 fold | 0.447 fold | 0.958 fold |  |  |  | 
GSGPSISHGQNQQT | 1.000 fold | 0.000 fold | 0.665 fold | 0.614 fold |  |  |  | 
GSGPWSAGLQNQQT | 1.067 fold | 0.947 fold | 0.539 fold | 0.700 fold |  |  |  | 
GSGQAAKSSQNQQT | 1.036 fold | 0.681 fold | 0.737 fold | 0.778 fold |  |  |  | 
GSGQALLSTGNQQT |  |  |  |  | 1.377 fold | 0.847 fold | 0.370 fold | 0.536 fold
GSGQALSSSGNQQT |  |  |  |  | 1.351 fold | 6.860 fold | 0.931 fold | 0.894 fold
GSGQARAHRGNQQT | 1.017 fold | 0.000 fold | 0.386 fold | 0.254 fold |  |  |  | 
GSGQASSKSANQQT |  |  |  |  | 1.339 fold | 1.138 fold | 0.175 fold | 0.500 fold
GSGQDMKQHHNQQT | 1.501 fold | 1.638 fold | 0.239 fold | 0.358 fold |  |  |  | 
GSGQDRHIVQNQQT | 1.527 fold | 11.068 fold | 0.162 fold | 0.285 fold |  |  |  | 
